Tests used:
[1] = Oxidation of NADPH under approximate physiologic conditions (HPLC, NADP+ formation); type: biochemical; settings: substrate NADPH, pH 7.5, Michaelis-Menton fit, triplicate; for Km: read-out: KM (dissociation or Michaelis constant), NADPH oxidation
Description: The following stock solutions were prepared: • Stock NADPH (Sigma N 7505) (prepared fresh daily): 12.2 mg/(10 mL. 833.4 mg/mmol)=1.46 mM • Stock GdTex: 5.76 mg/(10.0 mL water. 1148 mg/mmol)=501.7 μM • Stock 4× Buffer: 200 mM HEPES, pH 7.5; 400 mM NaCl; 0.4 mM EDTA • Stock LuTex: 5.02 mg/(10.0 mL water×1166 mg/mmol)=431 μM These were combined to form the reaction mixtures analyzed by HPLC, for example: • 250 μL 4× Buffer, 250 μL NADPH Stock, 427 μL Water, 72.7 μL GdTex Stock • 250 μL 4× Buffer, 250 μL NADPH Stock, 457.7 μL Water, 42.3 μL LuTex Stock The HPLC Method employed was as follows: 1. HPLC Operating Parameters: • System—HPLC system capable of delivering gradient mobile phase • Detector wavelength—260 nm • Injection Volume—20 μL • Pressure—ca: 2000 psi • Column Temperature—40° C. • Column—Nucleogel DEAE 60-7 125×4 mm 2. Mobile Phase: • Solution A—0.75 M KH2PO4, pH 3.8 • Solution B—0.016 M KH2PO4, pH 3.8
A reaction mixture was prepared containing NADPH, water and sufficient buffer to maintain the solution at pH 7.5. Texaphyrin, 0.1 molar equivalent to the NADPH, was added to this reaction mixture, vortexed briefly, and then the solution placed in the HPLC sampler for immediate injection. Further injections were made at appropriate time points, whereupon the integrated peak areas of both NADPH and NADP^+ were measured and used to calculate the extent of reaction at a given time point.
Provided that the amount of texaphyrin was sufficiently low relative to substrate, the percentage of NADP^+ generated by the reaction plotted against time initially gave a straight line. (For LuTex, it was necessary to drop the catalyst concentration to ca. 0.05 equivalent.) The slope of initial time points (eg., plotting as mM concentration vs time in hours) provided a rate which was used as a point in a saturation (Michaelis-Menton) plot. This process was repeated at various concentrations of NADPH. Data (in triplicate) was fitted to the Michaelis-Menton equation (initial reaction velocity/catalyst concentration)=(kcat×substrate concentration)/(KM+substrate concentration), where substrate is NADPH, catalyst is texaphyrin complex, kcat is the first-order rate constant for the catalyst, and KM is the dissociation (or Michaelis) constant for the catalyst/substrate complex. For GdTex, kcat=0.049±0.003 min^−1 and KM=1.69±0.17 mM. For LuTex, kcat=0.119±0.011 min^−1 and KM=0.56±0.20 mM.
1B. By following the procedure of Example 1A using a single concentration of NADPH and employing 0.1 equivalent of test compound, the results illustrated in FIG. 16 were obtained.

[2] = Oxidation of ascorbate under approximate physiologic conditions (UV-vis, 266 nm); type: biochemical
Description: • Stock ascorbic acid (Sigma A 5960) (prepared fresh): 8.82 mg/(25 mL 176.1 mg/mmol)=2.00 mM • Stock GdTex: 5.72 mg/(10.0 mL water. 1148 mg/mmol)=498 μM • Stock 4× Buffer: 200 mM HEPES, pH 7.5; 400 mM NaCl The stock solutions were prepared using ACS grade water (Aldrich 32,007-2). 4× buffer was prepared using NaCl 99.999% (Aldrich 20,443-9), HEPES (Gibco-BRL 11344-025), and sodium hydroxide 99.99% (Aldrich 30,657-6), and was treated with Chelex® 100 (BioRad 143-2832) prior to use to remove trace iron contaminants. These were combined to form the reaction mixture analyzed by UV-vis spectroscopy: 400 μL 4× Buffer, 200 μL Ascorbic Acid Stock, 979.9 μL Water, 20.1 μL GdTex Stock.
In brief, a reaction mixture was prepared containing ascorbate, buffer, and water. A lesser amount of texaphyrin catalyst, eg., 0.025 molar equivalent, was added to this reaction mixture, vortexed briefly, and placed in a quartz cuvette (0.2, 0.5, 1.0, 2.0, 5.0, or 10 mm path length as needed to give ca. 1.8 absorbance reading at 266 nm). The cuvette was placed in a UV-vis spectrophotometer and the absorbance was read every 60 seconds for ten minutes. The absorbance at 266 nm plotted against time initially gaive a straight line. The slope of initial time points (eg., plotting as M concentration vs time in minutes) provided a rate which was used as a point in a saturation (Michaelis-Menton) plot. This process was repeated at various concentrations of ascorbate. A background rate of ascorbate oxidation was also measured at each concentration of ascorbate using this procedure without GdTex catalyst. The resulting background rate of oxidation was subtracted from the rate of oxidation in the presence of catalyst.
2B. […] 2C. […] 2D. By following the procedure of Example 2A, using an initial ascorbate concentration of 1.23 mM and a texaphyrin concentration of 61.5 μM, the results summarized in below in Table 1 were obtained.

| Compound | kcat (first-order rate constant for the catalyst), NADPH oxidation [1] [min⁻¹] | Km [1] [mM] | kcat (first-order rate constant for the catalyst), ascorbate oxidation ([2]; substrate ascorbate, pH 7.5, background subtracted) [min⁻¹] | Km ([2]; substrate ascorbate, pH 7.5, background subtracted, read-out: KM (dissociation or Michaelis constant), ascorbate oxidation) [mM] | ascorbate oxidation (in words) ([2]; procedure of Example 2A, compared with motexafin gadolinium) |
| --- | --- | --- | --- | --- | --- |
| CC(=O)[O-].CC(=O)[O-].CCc1c(CC)c2cc3nc(cnc4cc(OCCOCCOCCOC)c(OCCOCCOCCOC)cc4ncc4nc(cc1[n-]2)C(CCCO)=C4C)C(C)=C3CCCO.O.[Gd+3] [GdTex, motexafin gadolinium] | 0.049 ± 0.003 | 1.69 ± 0.17 | 0.35 | 1.06 | – |
| CC(=O)[O-].CC(=O)[O-].CCc1c(CC)c2cc3nc(cnc4cc(OCCOCCOCCOC)c(OCCOCCOCCOC)cc4ncc4nc(cc1[n-]2)C(CCCO)=C4C)C(C)=C3CCCO.O.[Lu+3] [LuTex, motexafin lutetium] | 0.119 ± 0.011 | 0.56 ± 0.2 | – | – | to a lesser extent than in the presence of motexafin gadolinium |
